Data on 25 compounds can be found in patent publication US20230114241A1, “METHODS OF TREATING EPILEPSY USING THE SAME” (Trevena, Inc., priority 2019, published 2023).

Test [1] addresses T1, human sphingosine-1-phosphate receptor 1 (S1P1) (Homo sapiens, UniProt P21453). In words: Inhibition of cAMP production (HTRF cAMP HiRange), S1P1 CHO-K1 cells. The test is classed as cell-based. The following applies: for Emax: CHO-K1, efficacy normalized to maximum efficacy of fingolimod, read-out: hS1P1 CAMP SPAN; for EC50: inhibition of cAMP production, S1P1, read-out: hS1P1 CAMP pEC50 (converted). Put shortly:
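CHO-K1 cells co-expressing human S1P1 (C-terminal ProLink tag) and EA-β-arrestin2, plated overnight; after 30 min compound incubation at 37 °C, intracellular cAMP measured by HTRF TR-FRET following 1 h at room temperature. Values normalized to fingolimod.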
(Changes in cAMP serve as a functional read-out for many G protein-coupled receptors.)
Target sequence in this assay (P21453 whole entry): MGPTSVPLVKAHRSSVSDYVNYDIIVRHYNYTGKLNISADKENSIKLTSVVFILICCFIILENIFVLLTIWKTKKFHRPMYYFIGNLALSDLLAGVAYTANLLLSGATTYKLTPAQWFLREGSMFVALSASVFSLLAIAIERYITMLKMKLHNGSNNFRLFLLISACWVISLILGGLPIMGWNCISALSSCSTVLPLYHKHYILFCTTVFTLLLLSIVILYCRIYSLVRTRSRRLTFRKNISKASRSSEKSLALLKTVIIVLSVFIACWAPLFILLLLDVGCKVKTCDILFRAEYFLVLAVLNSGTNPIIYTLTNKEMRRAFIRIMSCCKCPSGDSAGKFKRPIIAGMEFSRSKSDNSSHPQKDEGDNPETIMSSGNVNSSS

Test [2] deals with T1, human sphingosine-1-phosphate receptor 1 (S1P1). The test can be described thus: β-Arrestin2 recruitment assay (PathHunter), S1P1 CHO-K1 cells. The test is classed as cell-based. The following applies: for Emax: CHO-K1, efficacy normalized to maximum efficacy of fingolimod, read-out: hS1P1 B-arrestin2 SPAN; for EC50: β-arrestin2 recruitment, S1P1, read-out: hS1P1 B-arrestin2 pEC50 (converted). Put shortly:
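CHO-K1 cells co-expressing EA-β-arrestin2 and ProLink-tagged human S1P1 plated overnight, then stimulated 60 min at 37 °C. Enzyme-fragment complementation (β-galactosidase) detected after 1 h at room temperature by luminescence; values normalized to fingolimod.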
Target sequence in this assay (P21453 whole entry): as above
Target sequence in this assay (P32121 whole entry partner): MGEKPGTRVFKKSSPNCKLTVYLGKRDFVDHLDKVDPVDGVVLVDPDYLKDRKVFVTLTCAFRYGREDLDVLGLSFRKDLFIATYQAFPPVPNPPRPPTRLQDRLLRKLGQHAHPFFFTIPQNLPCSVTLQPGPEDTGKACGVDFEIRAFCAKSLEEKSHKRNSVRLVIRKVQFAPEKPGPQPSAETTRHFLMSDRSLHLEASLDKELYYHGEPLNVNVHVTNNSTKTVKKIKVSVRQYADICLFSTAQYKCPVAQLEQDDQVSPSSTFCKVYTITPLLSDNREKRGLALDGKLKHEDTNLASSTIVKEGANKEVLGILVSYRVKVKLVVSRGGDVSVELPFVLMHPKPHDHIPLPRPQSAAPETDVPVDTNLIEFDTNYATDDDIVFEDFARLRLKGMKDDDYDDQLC
On the technique in general: Activated receptors often draw arrestin, which recruitment assays turn into a signal.

In the case of `CC(C)Oc1ccc(-c2ncc(-c3ccc4c(c3)nnn4C(C)C)cn2)cc1C#N` [Compound 595, 2-isopropoxy-5-(5-(1-isopropyl-1H-benzo[d][1,2,3]triazol-5-yl)pyrimidin-2-yl)benzonilrile], in test [1], the Emax was above 75% and the EC50 was below 316 nM. Moreover, in test [2], the Emax was above 75% and the EC50 is below 10 µM.

For `CC(C)Nc1ccc(-c2ncc(-c3ccc4c(c3)nnn4C(C)C)cn2)cc1C#N` [Compound 596, 5-(5-(1-isopropyl-1H-benzo[d][1,2,3]triazol-5-yl)pyrimidin-2-yl)-2-(isopropyl-amino)benzonitrile], in test [1], the Emax is below 75% and the EC50 is below 316 nM. Also, in test [2], the Emax is above 75% and the EC50 was below 10 µM.

Turning to `Cc1cnccc1-c1noc(-c2ccc3c(c2)nnn3CC(C)(C)O)n1` [Compound 597, 2-methyl-1-{5-[3-(3-methylpyridin-4-yl)-1,2,4-oxadiazol-5-yl]-1H-1,2,3-benzotriazol-1-yl}propan-2-ol], the Emax in test [1] and in test [2] was above 75% in each case. Further, the EC50 in test [1] is below 316 nM; in test [2] it was below 10 µM.

Consider `Cc1ccccc1-c1cc(-c2ccc3c(c2)nnn3C(C)C)c[nH]1` [Compound 601, 5-[5-(2-methylphenyl)-1H-pyrrol-3-yl]-1-(propan-2-yl)-1H-1,2,3-benzotriazole], for which, in test [1], the Emax was above 75% and the EC50 was above 316 nM. In addition, in test [2], the Emax was below 75% and the EC50 is below 10 µM.

On to `CC(C)n1nnc2cc(-c3noc(-c4ncccc4O)n3)ccc21` [Compound 602, 2-{3-[1-(propan-2-yl)-1H-1,2,3-benzo-triazol-5-yl]-1,2,4-oxadiazol-5-yl}pyridin-3-ol], for which the Emax was below 75% in test [1] and above 75% in test [2]. In addition, the EC50 in test [1] is above 316 nM; in test [2], above 10 µM.

For `CCC1(CC)CC(=O)c2cc(-c3nc(-c4cncc(S(N)(=O)=O)c4)no3)ccc2O1` [Compound 603, 5-(5-(2,2-diethyl-4-oxochroman-6-yl)-1,2,4-oxadiazol-3-yl)pyridine-3-sulfonamide], the Emax in test [1] and in test [2] was above 75% in each case. Moreover, the EC50 in test [1] was below 316 nM; in test [2], below 10 µM.

`CCC1(CC)CC(=O)c2cc(-c3nc(-c4sccc4OC)no3)ccc2O1` [Compound 604, 2,2-diethyl-6-(3-(3-methoxythiophen-2-yl)-1,2,4-oxadiazol-5-yl)chroman-4-one]: the Emax in test [1] and in test [2] was above 75% each time. The EC50 in test [1] is below 316 nM; in test [2] it was below 10 µM.

Regarding `CC(C)n1nnc2cc(-c3noc(-c4cccc5c4CCC5=O)n3)ccc21` [Compound 608, 4-{3-[1-(propan-2-yl)-1H-1,2,3-benzo-triazol-5-yl]-1,2,4-oxadiazol-5-yl}-2,3-dihydro-1H-inden-1-one], the Emax in test [1] and in test [2] was above 75% in each case. The EC50 was below 316 nM in test [1] and below 10 µM in test [2].

Consider `Cc1ccccc1-c1nc(-c2ccc3c(c2)nnn3C(C)(C)CO)no1` [Compound 609, 2-methyl-2-(5-(5-(o-tolyl)-1,2,4-oxadiazol-3-yl)-1H-benzo[d] [1,2,3]triazol-1-yl)propan-1-ol], for which, in test [1], the Emax was below 75% and the EC50 is below 316 nM. Also, in test [2], the Emax was below 75% and the EC50 is above 10 µM.

In the case of `COc1ccc(-c2nc(-c3ccc4c(c3)nnn4C(C)(C)CO)no2)c(C)c1` [Compound 610, 2-(5-(5-(4-methoxy-2-methylphenyl)-1,2,4-oxadiazol-3-yl)-1H-benzo[d] [1,2,3]triazol-1-yl)-2-methylpropan-1-ol], in test [1], the Emax is below 75% and the EC50 is above 316 nM. Also, in test [2], the Emax is above 75% and the EC50 is above 10 µM.

Turning to `Cc1ccncc1-c1noc(-c2ccc3c(c2)NC(=O)CN3)n1` [Compound 613, 7-[3-(4-methylpyridin-3-yl)-1,2,4-oxadiazol-5-yl]-1,2,3,4-tetra-hydroquinoxalin-2-one], in test [1], the Emax was below 75% and the EC50 is above 316 nM. Also, in test [2], the Emax was below 75% and the EC50 was above 10 µM.

On to `COc1ccccc1-c1noc(-c2ccc3c(c2)NC(=O)CN3)n1` [Compound 614, 7-[3-(2-methoxyphenyl)-1,2,4-oxadiazol-5-yl]-1,2,3,4-tetrahydro-quinoxalin-2-one], for which, in test [1], the Emax was above 75% and the EC50 was above 316 nM. In test [2], the Emax is below 75% and the EC50 was above 10 µM.

Turning to `CC(C)n1nnc2cc(-c3noc(-c4ccccc4N(C)C)n3)ccc21` [Compound 615, N,N-dimethy1-2-{3-[1-(propan-2-yl)-1H-1,2,3-benzotriazol-5-yl]-1,2,4-oxadiazol-5-yl}aniline], the Emax in test [1] and in test [2] was above 75% in each case. In addition, the EC50 in test [1] was below 316 nM; in test [2], below 10 µM.

In the case of `CCC1(CC)CC(=O)c2cc(-c3nc(-c4ccnc(S(N)(=O)=O)c4)no3)ccc2O1` [Compound 616, 4-(5-(2,2-diethyl-4-oxochroman-6-yl)-1,2,4-oxadiazol-3-yl)pyridine-2-sulfonamide], in test [1], the Emax is above 75% and the EC50 was below 316 nM. In addition, in test [2], the Emax is above 75% and the EC50 was below 10 µM.

For `CCC1(CC)CC(=O)c2cc(-c3nc(-c4cnccn4)no3)ccc2O1` [Compound 617, 2,2-diethyl-6-(3-(pyrazin-2-yl)-1,2,4-oxadiazol-5-yl)chroman-4-one], in test [1], the Emax was below 75% and the EC50 was above 316 nM. For the same compound, in test [2], the Emax was above 75% and the EC50 is above 10 µM.

In the case of `CC(C)(CO)n1nnc2cc(-c3noc(-c4ccccc4Cl)n3)ccc21` [Compound 618, 2-(5-(5-(2-chloro-phenyl)-1,2,4-oxadiazol-3-yl)-1H-benzo[d][1,2,3]triazol-1-yl)-2-methylpropan-1-ol], in test [1], the Emax was below 75% and the EC50 is above 316 nM. For the same compound, in test [2], the Emax was below 75% and the EC50 is below 10 µM.

Consider `COc1ncccc1-c1noc(-c2ccc3c(c2)nnn3C(C)C)n1` [Compound 619, 5-(1-isopropyl-1H-benzo[d][1,2,3]triazol-5-yl)-3-(2-methoxy-pyridin-3-yl)-1,2,4-oxadiazole], for which the Emax in test [1] and in test [2] was above 75% each time. In addition, the EC50 in test [1] was below 316 nM; in test [2], below 10 µM.

On to `CCC1(CC)CC(=O)c2cc(-c3nc(-c4cncnc4)no3)ccc2O1` [Compound 620, 2,2-diethyl-6-(3-(pyrimidin-5-yl)-1,2,4-oxadiazol-5-yl)chroman-4-one], for which, in test [1], the Emax was below 75% and the EC50 is below 316 nM. In addition, in test [2], the Emax is above 75% and the EC50 is below 10 µM.

Regarding `CCC1(CC)CC(=O)c2cc(-c3nc(-c4cccnn4)no3)ccc2O1` [Compound 621, 2,2-diethyl-6-(3-(pyridazin-3-yl)-1,2,4-oxadiazol-5-yl)chroman-4-one], the Emax in test [1] and in test [2] was above 75% in each case. Further, the figures for the EC50 in test [1] and in test [2] were above 316 nM and above 10 µM, respectively.

As to `CCC1(CC)CC(=O)c2cc(-c3nc(-c4ccc5ncoc5c4)no3)ccc2O1` [Compound 622, 6-(3-(benzo[d]oxazol-6-yl)-1,2,4-oxadiazol-5-yl)-2,2-diethyl-chroman-4-one], in test [1], the Emax is above 75% and the EC50 was below 316 nM. In test [2], the Emax is below 75% and the EC50 was above 10 µM.

On to `CC(C)(CO)n1nnc2cc(-c3noc(-c4ccncc4C(F)(F)F)n3)ccc21` [Compound 626, 2-methyl-2-(5-(5-(3-(trifluoro-methyl)pyridin-4-yl)-1,2,4-oxadiazol-3-yl)-1H-benzo[d] [1,2,3]triazol-1-yl)propan-1-ol], for which the Emax in test [1] and in test [2] was below 75% in each case. In addition, in test [1], the EC50 is above 316 nM.

Turning to `CC(C)Nc1ccc(-c2ncc(-c3ccc4[nH]c(=O)[nH]c4c3)cn2)cc1C#N` [Compound 628, 2-(isopropylamino)-5-(5-(2-oxo-2,3-dihydro-1H-benzo[d]imidazol-5-yl)pyrimidin-2-yl)benzonitrile], in test [1], the Emax is above 75% and the EC50 was below 316 nM. Further, in test [2], the Emax is below 75% and the EC50 is below 10 µM.

In the case of `O=C1CNc2ccc(-c3nc(-c4cccnc4)no3)cc2N1` [Compound 629, 7-[3-(pyridin-3-yl)-1,2,4-oxadiazol-5-yl]-1,2,3,4-tetra-hydroquinoxalin-2-one], the Emax in test [1] is above 75%; in test [2], below 75%. Also, the EC50 in test [1] is above 316 nM; in test [2], above 10 µM.

As to `CCCC1CC(=O)c2ccc(-c3nc(-c4cccnc4)no3)cc2O1` (stereo not drawn) [Compound 630, 2-propyl-7-[3-(pyridin-3-yl)-1,2,4-oxadiazol-5-yl]-3,4-dihydro-2H-1-benzopyran-4-one], in test [1], the Emax was below 75% and the EC50 was above 316 nM. In test [2], the Emax was below 75% and the EC50 is above 10 µM.

As to `CCCCC1CC(=O)c2ccc(-c3nc(-c4cccnc4)no3)cc2O1` (stereo not drawn) [Compound 633, 2-butyl-7-[3-(pyridin-3-yl)-1,2,4-oxadiazol-5-yl]-3,4-dihydro-2H-1-benzopyran-4-one], the Emax in test [1] and in test [2] was below 75% throughout. In addition, the EC50 in test [1] was above 316 nM; in test [2] it was above 10 µM.
